From patent US8956996B2, “Method for reducing nitrous oxide emission from soils” (BASF SE, priority 2009, dated 2015)

Key:
N2O emission from soil [1] = test: Loss of nitrate and ammonium nitrogen in LiHof soil, pyraclostrobin and boscalid (Example 3); conditions: for Effect on N2O emission from soil (in words): LiHof soil, fertilizer applied 1 day after compound (A); for Loss of NO3-N + NH4-N in mg N/10 g soil in 48 h: soil type LiHof, pyraclostrobin 250 g/ha, boscalid 2.33 g/L, fertilizer 1 day after compound (A), UTC 0.52
N2O emission from soils [2] = test: Greenhouse trial: N2O emission from potted field soil planted with summer wheat (Example 4); type: in vivo; conditions: for Mean mg N2O-N/m^2: 4 weeks
N2O emission from soils [3] = test: N2O emission from potted corn after pyraclostrobin seed treatment, NPK fertilizer applied 10 days later (Example 1); type: in vivo, Zea mays
N2O emission from soil [4] = test: Loss of nitrate and ammonium nitrogen in soil samples, Conway method, as indirect measure of N2O produced (Example 2); conditions: for Loss of NO3-N + NH4-N in mg N/10 g soil in 48 h: fertilizer 1 day after compound (A)

| Compound | Effect on N2O emission from soil (in words) (N2O emission from soil [1]) | Loss of NO3-N + NH4-N in mg N/10 g soil in 48 h (N2O emission from soil [1]) [mg N/10 g soil] | Effect on N2O emission from soils (in words) (N2O emission from soils [2]; combined application of compound (A) and compound (B)) | Mean mg N2O-N/m^2 (N2O emission from soils [2]; pyraclostrobin 250 g/ha 8 days before the application of the fertilizer (ammonium nitrate 100 kg/ha)) [mg N2O-N/m^2] | Mean mg N2O-N/m^2 (N2O emission from soils [2]; pyraclostrobin 250 g/ha together with the application of the fertilizer (ammonium nitrate 100 kg/ha)) [mg N2O-N/m^2] | Effect on N2O emission from soils (in words) (N2O emission from soils [2]; pyraclostrobin and ammonium nitrate with time lag of 8 days, compared to fertilizer alone or joint application) | N2O increase over ambient (N2O emission from soils [3]; seed treatment 5 g/100 kg seeds, 0.3% NPK fertilizer HaKaPhos Blue applied on day 10, peak value on day 2 of three day measurement, N = 14, UTC 190) [ppbv/h] | Effect on N2O emission from soils (in words) (N2O emission from soils [3]; seed treatment, fertilizer applied 10 days after compound (A)) | Loss of NO3-N + NH4-N in mg N/10 g soil in 48 h (N2O emission from soil [4]; soil type LiHof, UTC 0.54) [mg N/10 g soil] | Loss of NO3-N + NH4-N in mg N/10 g soil in 48 h (N2O emission from soil [4]; soil type Sp 2.1, UTC 0.16) [mg N/10 g soil] | Loss of NO3-N + NH4-N in mg N/10 g soil in 48 h (N2O emission from soil [4]; soil type Sp 2.2, UTC 0.19) [mg N/10 g soil] | Loss of NO3-N + NH4-N in mg N/10 g soil in 48 h (N2O emission from soil [4]; soil type Sp 2.3, UTC 0.38) [mg N/10 g soil] | Loss of NO3-N + NH4-N in mg N/10 g soil in 48 h (N2O emission from soil [4]; soil type Sp 2.4, UTC 0.37) [mg N/10 g soil] | Loss of NO3-N + NH4-N in mg N/10 g soil in 48 h (N2O emission from soil [4]; soil type Sp 5M, UTC 0.27) [mg N/10 g soil] | Loss of NO3-N + NH4-N in mg N/10 g soil in 48 h (N2O emission from soil [4]; soil type Sp 6S, UTC 0.48) [mg N/10 g soil] | Effect on N2O emission from soil (in words) (N2O emission from soil [4]; various types of soil, fertilizer applied 1 day after compound (A)) |
| --- | --- | --- | --- | --- | --- | --- | --- | --- | --- | --- | --- | --- | --- | --- | --- | --- |
| O=C(Nc1ccccc1-c1ccc(Cl)cc1)c1cccnc1Cl [Boscalid, boscalid] | significantly reduced the N2O emission from soil | 0.35 |  |  |  |  |  |  |  |  |  |  |  |  |  |  |
| COC(=O)N(OC)c1ccccc1COc1ccn(-c2ccc(Cl)cc2)n1 [Pyraclostrobin, pyraclostrobin] | significantly reduced the N2O emission from soil | 0.09 | does not result in a reduction of N2O emission from soils | 100.9 | 314.9 | significantly reduced | 107 | significantly reduce the N2O emission from soils | 0.06 | 0.03 | 0.02 | 0.18 | 0.13 | 0.10 | 0.21 | significantly reduce the N2O emission from soil |
